Drawing on US20140357666A1, “COMPOUNDS FOR INHIBITING THE INTERACTION OF BCL2 WITH BINDING PARTNERS” (NOVARTIS AG, priority 2011, published 2014), this text covers IC50 for 36 compounds.

The target in assay [1] is BCL-2 binding to biotinylated BAD peptide (Homo sapiens, UniProt P10415). Nature of the assay: SPR (Biacore) solution inhibition assay, BCL-2 binding to BAD peptide surface. Conditions: read-out: BCL2_SPR IC50 BAD. From the text:
(§1) The present method includes utility of a Surface plasmon resonance (SPR)-based biosensor (Biacore™, GE Healthcare, Uppsala, Sweden) to characterize BCL-2 inhibitors.
(§2) Biacore™ utilizes the phenomenon of surface plasmon resonance (SPR) to detect and measure binding interactions. In a typical Biacore experiment, one of the interacting molecules (ligand) is immobilized on a flexible dextran matrix while the interacting partner (analyte) is allowed to flow across that surface. A binding interaction results in an increase in mass on the sensor surface and a corresponding direct change in the refractive index of the medium in the vicinity of the sensor surface. Changes in refractive index or signal are recorded in resonance units (R.U.) Signal changes due to association and dissociation of complexes are monitored in a non-invasive manner, continuously and in real-time, the results of which are reported in the form of a sensorgram.
(§3) The SPR assay is configured to examine solution inhibition of BCL-2 binding to peptide derivatized sensor surfaces to generate IC50 values as a measure of inhibitor potency.
(§4) Biacore™ A100 (GE Healthcare, Uppsala, Sweden) was used to conduct all experiments reported herein. Sensor surface preparation and all interaction analyses experiments were performed at 25° C. Reagents were purchased from GE Healthcare. Running buffer containing 10 mM Hepes, pH7.4, 150 mM sodium chloride, 1.25 mM Dithiothreitol, 3% Dimethyl sulfoxide and 0.05% polysorbate 20 were utilized throughout all analyses.
(§5) Biotinylated BAK, BAD and NOXA peptides were diluted to 10 nM in running buffer and captured onto a sensor surface pre-derivatized with streptavidin (sensor chip SA) to peptide surface densities in the range 50-100 R.U. Peptide captured surfaces were blocked with 500 μM PEO2-Biotin.
(§6) Interaction analyses were performed by first equilibrating each sample within a 6 point three fold compound dilution series in the range 16 μM to […] with 56 nM BCL-2 for one hour during instrument start-up procedures. Protein compound mixtures were then injected over each peptide surface in parallel for 60 seconds at a flow-rate of 30 μL/min. 56 nM BCL-2 control samples were also prepared and run at regular intervals during the assay. Surface regeneration was performed at the end of each analysis cycle by two 30 second injections of 10 mM Glycine, pH 2.5, 1M Sodium Chloride, 0.05% polysorbate 20. Samples and control compound samples were run in duplicate and controls are also run at regular intervals during the assay to monitor surface and assay performance.
(§7) Data analyses are carried out using Biacore™ A100 evaluation software v1.1 to validate assay quality. Binding level report points were used relative to BCL-2 control samples to calculate % inhibition values for each compound protein mixture. […] The range of data shown in table 1 represents the high and low IC50 values obtained from multiple experiments.

In assay [2] the target is BCL-2 binding to biotinylated BAK peptide (Homo sapiens, UniProt P10415). Nature of the assay: SPR (Biacore) solution inhibition assay, BCL-2 binding to BAK peptide surface. The settings on record: read-out: BCL2_SPR IC50 BAK.
Text: as §1, §2, §3, §4, §5, §6, §7
On the technique in general: In SPR one partner is held on a chip, and binding of the other changes the refractive index at the surface.

Chain of BCL-2 binding to biotinylated BAD peptide (P10415 whole entry): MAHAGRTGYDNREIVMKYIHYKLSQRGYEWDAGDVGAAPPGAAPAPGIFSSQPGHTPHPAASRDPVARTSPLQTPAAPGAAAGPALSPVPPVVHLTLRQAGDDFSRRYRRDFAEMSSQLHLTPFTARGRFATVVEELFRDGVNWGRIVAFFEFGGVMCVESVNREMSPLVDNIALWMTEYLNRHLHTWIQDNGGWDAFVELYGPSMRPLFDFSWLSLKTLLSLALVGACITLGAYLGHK
Chain of BCL-2 binding to biotinylated BAK peptide (P10415 whole entry): as above

With `CCCCN(CCCC)C(=O)c1cc(C)n(-c2ccc(NC(=O)NCc3ccccc3)cc2C(=O)N2Cc3ccccc3C[C@H]2CO)n1` [Example 1, (S)-1-(4-(3-benzylureido)-2-(3-(hydroxymethyl)-1,2,3,4-tetrahydroisoquinoline-2-carbonyl)phenyl)-N,N-dibutyl-5-methyl-1H-pyrazole-3-carboxamide], the IC50 lay in the range of 52 to 65.5 nM in assay [1] and 45.2 to 54.3 nM in assay [2].
Regarding `CCCCN(CCCC)C(=O)c1cc(C)n(-c2ccc(NC(=O)NCC)cc2C(=O)N2Cc3ccccc3C[C@H]2CO)n1` [Example 2], the IC50 in assay [1] was 582 to 618 nM; in assay [2], 404 to 430 nM.
`CCCCN(CCCC)C(=O)c1cc(C)n(-c2ccc(NC(=O)Nc3cccc(OC)c3)cc2C(=O)N2Cc3ccccc3C[C@H]2CO)n1` [Example 3]: the half-inhibitory concentration (IC50) in assay [1] fell in the range of 894 to 1020 nM; in assay [2] it was 806 to 893 nM.
For the compound `CCCCN(CCCC)C(=O)c1cc(C)n(-c2ccc(NC(=O)N[C@@H](C)c3ccccc3)cc2C(=O)N2Cc3ccccc3C[C@H]2CO)n1` [Example 4], the IC50 in assay [1] is 86.3 to 91.3 nM; in assay [2], 73.1 to 75.7 nM.
On to `CCCCN(CCCC)C(=O)c1cc(C)n(-c2ccc(NC(=O)NCc3ccccc3OC)cc2C(=O)N2Cc3ccccc3C[C@H]2CO)n1` [Example 5], for which the half-maximal inhibitory concentration (IC50) in assay [1] was 72.3 to 78.3 nM; in assay [2], 73.2 to 77.1 nM.
For `CCCCN(CCCC)C(=O)c1cc(C)n(-c2ccc(NC(=O)NCc3ccc(OC)cc3)cc2C(=O)N2Cc3ccccc3C[C@H]2CO)n1` [Example 6], in that order: 108 to 117 nM and 83.6 to 89.2 nM.
For `CCCCN(CCCC)C(=O)c1cc(C)n(-c2ccc(NC(=O)NCc3ccccc3Cl)cc2C(=O)N2Cc3ccccc3C[C@H]2CO)n1` [Example 7], in that order: 103 to 107 nM and 86.3 to 94.2 nM.
As for `CCCCN(CCCC)C(=O)c1cc(C)n(-c2ccc(NC(=O)NCc3ccc(Cl)cc3)cc2C(=O)N2Cc3ccccc3C[C@H]2CO)n1` [Example 8], the IC50 in assay [1] was in the range of 156 to 165 nM; in assay [2], 140 to 149 nM.
With `CCCCN(CCCC)C(=O)c1cc(C)n(-c2ccc(NC(=O)N[C@H](C)c3ccccc3)cc2C(=O)N2Cc3ccccc3C[C@H]2CO)n1` [Example 9], the IC50 was 334 to 357 nM in assay [1] and 250 to 273 nM in assay [2].
In the case of `CCCCN(CCCC)C(=O)c1cc(C)n(-c2ccc(NC(=O)Nc3ccc(C)c(C)c3)cc2C(=O)N2Cc3ccccc3C[C@H]2CO)n1` [Example 10], the IC50 in assay [1] is 731 to 784 nM; in assay [2] it was 624 to 639 nM.
Take `CCCCN(CCCC)C(=O)c1cc(C)n(-c2ccc(NC(=O)Nc3ccc(F)c(C(F)(F)F)c3)cc2C(=O)N2Cc3ccccc3C[C@H]2CO)n1` [Example 11]: the IC50 in assay [1] fell in the range of 3020 to 3220 nM; in assay [2], 2710 to 2770 nM.
With `CCCCN(CCCC)C(=O)c1cc(C)n(-c2ccc(NC(=O)Nc3ccccc3Oc3ccccc3)cc2C(=O)N2Cc3ccccc3C[C@H]2CO)n1` [Example 12], the IC50 in assay [1] and in assay [2] was above 16000 nM each time.
For the compound `CCCCN(CCCC)C(=O)c1cc(C)n(-c2ccc(NC(=O)N[C@@H]3C[C@H]3c3ccccc3)cc2C(=O)N2Cc3ccccc3C[C@H]2CO)n1` [Example 13], the IC50 in assay [1] is above 16000 nM; in assay [2] it was 8770 to 9190 nM.
With `CCCCN(CCCC)C(=O)c1cc(C)n(-c2ccc(NC(=O)NC(C)C)cc2C(=O)N2Cc3ccccc3C[C@H]2CO)n1` [Example 14], the IC50 in assay [1] lay in the range of 494 to 509 nM; in assay [2], 343 to 356 nM.
Take `CCCCN(CCCC)C(=O)c1cc(C)n(-c2ccc(NC(=O)NCCc3ccccc3)cc2C(=O)N2Cc3ccccc3C[C@H]2CO)n1` [Example 15]: in assay [1], the IC50 lay in the range of 150 to 157 nM.
On to `CCCCN(CCCC)C(=O)c1cc(C)n(-c2ccc(NC(=O)Nc3ccc(SC)cc3)cc2C(=O)N2Cc3ccccc3C[C@H]2CO)n1` [Example 16], for which the values for the half-inhibitory concentration (IC50) in assay [1] and in assay [2] were 786 to 983 nM and 812 to 962 nM, respectively.
`CCCCN(CCCC)C(=O)c1cc(C)n(-c2ccc(NC(=O)NCc3cccc(C)c3)cc2C(=O)N2Cc3ccccc3C[C@H]2CO)n1` [Example 17]: the IC50 in assay [1] was 89 to 108 nM; in assay [2], 85.1 to 85.9 nM.
Take `CCCCN(CCCC)C(=O)c1cc(C)n(-c2ccc(NC(=O)Nc3ccc(-c4ccccc4)cc3)cc2C(=O)N2Cc3ccccc3C[C@H]2CO)n1` [Example 18]: the IC50 in assay [1] was 1730 to 1760 nM; in assay [2], 1950 to 2010 nM.
For `CCCCN(CCCC)C(=O)c1cc(C)n(-c2ccc(NC(=O)N[C@H](C)c3ccc(OC)cc3)cc2C(=O)N2Cc3ccccc3C[C@H]2CO)n1` [Example 19], the half-inhibitory concentration (IC50) in assay [1] was in the range of 725 to 805 nM; in assay [2] it was 736 to 857 nM.
Turning to `CCCCN(CCCC)C(=O)c1cc(C)n(-c2ccc(NC(=O)N[C@@H](C)c3ccc(OC)cc3)cc2C(=O)N2Cc3ccccc3C[C@H]2CO)n1` [Example 20], the IC50 in assay [1] is 71.1 to 75.4 nM; in assay [2], 69 to 80.5 nM.
Take `CCCCN(CCCC)C(=O)c1cc(C)n(-c2ccc(NC(=O)Nc3ccccc3OC)cc2C(=O)N2Cc3ccccc3C[C@H]2CO)n1` [Example 21]: the 50% inhibitory concentration (IC50) in assay [1] lay in the range of 2640 to 3450 nM; in assay [2], 2740 to 3150 nM.
The matching figures for `CCCCN(CCCC)C(=O)c1cc(C)n(-c2ccc(NC(=O)Nc3ccc(C#N)cc3)cc2C(=O)N2Cc3ccccc3C[C@H]2CO)n1` [Example 22]: 1840 to 2170 nM and 1570 to 1730 nM.
Take `CCCCN(CCCC)C(=O)c1cc(C)n(-c2ccc(NC(=O)N[C@@H](C)c3cccc(OC)c3)cc2C(=O)N2Cc3ccccc3C[C@H]2CO)n1` [Example 23]: the concentration for half-maximal inhibition (IC50) was 45.5 to 46.7 nM in assay [1] and 37 to 41.7 nM in assay [2].
Regarding `CCCCN(CCCC)C(=O)c1cc(C)n(-c2ccc(NC(=O)Nc3ccc(OC)cc3C)cc2C(=O)N2Cc3ccccc3C[C@H]2CO)n1` [Example 25], the concentration for half-maximal inhibition (IC50) was in the range of 232 to 255 nM in assay [1] and 143 to 177 nM in assay [2].
As to `CCCCN(CCCC)C(=O)c1cc(C)n(-c2ccc(NC(=O)Nc3cccs3)cc2C(=O)N2Cc3ccccc3C[C@H]2CO)n1` [Example 26], the figures for the IC50 in assay [1] and in assay [2] were 2090 to 2440 nM and 1660 to 1700 nM, respectively.
As for `CCCCN(CCCC)C(=O)c1cc(C)n(-c2ccc(NC(=O)Nc3ccc(Cl)cc3C)cc2C(=O)N2Cc3ccccc3C[C@H]2CO)n1` [Example 27], the IC50 was in the range of 900 to 962 nM in assay [1] and 846 to 861 nM in assay [2].
For the compound `CCCCN(CCCC)C(=O)c1cc(C)n(-c2ccc(NC(=O)Nc3ccccc3OCC)cc2C(=O)N2Cc3ccccc3C[C@H]2CO)n1` [Example 28], the figures for the half-inhibitory concentration (IC50) in assay [1] and in assay [2] were 508 to 697 nM and 551 to 618 nM, respectively.
With `CCCCN(CCCC)C(=O)c1cc(C)n(-c2ccc(NC(=O)Nc3ccc4ccccc4c3)cc2C(=O)N2Cc3ccccc3C[C@H]2CO)n1` [Example 29], the IC50 lay in the range of 2430 to 2560 nM in assay [1] and 1840 to 2440 nM in assay [2].
As for `CCCCN(CCCC)C(=O)c1cc(C)n(-c2ccc(NC(=O)Nc3c(C)cccc3C)cc2C(=O)N2Cc3ccccc3C[C@H]2CO)n1` [Example 30], the IC50 lay within 210 to 238 nM in assay [1] and 192 to 205 nM in assay [2].
For `CCCCN(CCCC)C(=O)c1cc(C)n(-c2ccc(NC(=O)Nc3cccc(Cc4ccccc4)c3)cc2C(=O)N2Cc3ccccc3C[C@H]2CO)n1` [Example 31], in that order: 2320 to 2500 nM and 1540 to 1580 nM.
Regarding `CCCCN(CCCC)C(=O)c1cc(C)n(-c2ccc(NC(=O)NC3CCCC3)cc2C(=O)N2Cc3ccccc3C[C@H]2CO)n1` [Example 32], the figures for the IC50 in assay [1] and in assay [2] were 445 to 463 nM and 279 to 284 nM, respectively.
Regarding `CCCCN(CCCC)C(=O)c1cc(C)n(-c2ccc(NC(=O)Nc3cccc(Cl)c3C)cc2C(=O)N2Cc3ccccc3C[C@H]2CO)n1` [Example 33], the IC50 is 440 to 448 nM in assay [1] and 337 to 378 nM in assay [2].
For the compound `CCCCN(CCCC)C(=O)c1cc(C)n(-c2ccc(NC(=O)Nc3c(C)cccc3CC)cc2C(=O)N2Cc3ccccc3C[C@H]2CO)n1` [Example 34], the half-inhibitory concentration (IC50) lay in the range of 618 to 713 nM in assay [1] and 631 to 667 nM in assay [2].
As to `CCCCN(CCCC)C(=O)c1cc(C)n(-c2ccc(NC(=O)Nc3ccc(F)c(F)c3)cc2C(=O)N2Cc3ccccc3C[C@H]2CO)n1` [Example 35], the IC50 in assay [1] fell in the range of 3200 to 3930 nM; in assay [2] it was 3010 to 3070 nM.
In the case of `CCCCN(CCCC)C(=O)c1cc(C)n(-c2ccc(NC(=O)Nc3cc(Cl)cc(Cl)c3)cc2C(=O)N2Cc3ccccc3C[C@H]2CO)n1` [Example 36], the half-inhibitory concentration (IC50) in assay [1] and in assay [2] was above 16000 nM each time.
`CCCCN(CCCC)C(=O)c1cc(C)n(-c2ccc(NC(=O)Nc3cc(F)cc(F)c3)cc2C(=O)N2Cc3ccccc3C[C@H]2CO)n1` [Example 37]: the values for the concentration for half-maximal inhibition (IC50) in assay [1] and in assay [2] were 4060 to 4280 nM and 3760 to 3780 nM, respectively.

In general, IC50 refers to the concentration at which inhibition is half-maximal.
